PubChem BioAssay (NCI)
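All cell lines were grown in 96-well plates and treated with compound for 48 hours. TGI marks complete inhibition of growth.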

What was measured:
Assay in all cases: growth of human tumour cells (NCI), 48 h
[1] = test system: OVCAR-8 ovarian
[2] = test system: KM12 colon
[3] = test system: K-562 leukemia
[4] = test system: COLO 205 colon
[5] = test system: SNB-75 CNS
[6] = test system: HCC-2998 colon
[7] = test system: MCF7 breast
[8] = test system: BT-549 breast
[9] = test system: UO-31 renal
[10] = test system: SK-OV-3 ovarian
[11] = test system: HL-60(TB) leukemia
[12] = test system: UACC-257 melanoma
[13] = test system: MALME-3M melanoma

SMILES	TGI [1]	TGI [2]	TGI [3]	TGI [4]	TGI [5]	TGI [6]	TGI [7]	TGI [8]	TGI [9]	TGI [10]	TGI [11]	TGI [12]	TGI [13]
O=c1c2cc(I)ccc2nc(-c2cccs2)n1/N=C/c1ccccc1	> 100 µM	> 100 µM	> 100 µM	> 100 µM	> 100 µM	> 100 µM	> 100 µM	> 100 µM	> 100 µM	> 100 µM	> 100 µM	> 100 µM	
COc1cc(/C=N/NC2=NCCCCN2)ccc1O	> 100 µM	> 100 µM	> 100 µM	> 100 µM	> 100 µM	> 100 µM	> 100 µM	> 100 µM	> 100 µM	> 100 µM	> 100 µM	> 100 µM	> 100 µM
O=c1oc2ccc([N+](=O)[O-])cc2cc1Br	> 100 µM	> 100 µM	> 100 µM	> 100 µM		> 100 µM	> 100 µM	> 100 µM	> 100 µM		> 100 µM	> 100 µM	> 100 µM
C#CC1NC(=O)C1N(CC)CC (configuration not stated)	> 100 µM	> 100 µM	> 100 µM	> 100 µM	> 100 µM	> 100 µM	> 100 µM	> 100 µM	> 100 µM	> 100 µM	> 100 µM	> 100 µM	> 100 µM
CC1CN=C(Nc2ccc(F)c(Cl)c2)S1 (configuration not stated)	> 100 µM	> 100 µM	> 100 µM	> 100 µM	> 100 µM	> 100 µM	> 100 µM	> 100 µM	91.8 µM	> 100 µM	> 100 µM	> 100 µM	> 100 µM
CC(=O)OCC1OC(n2nc(Cc3ccccc3)c(=S)[nH]c2=S)C(OC(C)=O)C(OC(C)=O)C1OC(C)=O (configuration not stated)	58.4 µM	40.2 µM	> 100 µM	> 100 µM	39.8 µM		72.7 µM	41.7 µM	51.7 µM	> 100 µM	27.2 µM	37.8 µM	83.9 µM
O=P(O)(CN1CCN(CP(=O)(O)c2ccccc2)CCN(CP(=O)(O)c2ccccc2)CC1)c1ccccc1	> 100 µM	> 100 µM	> 100 µM	> 100 µM	> 100 µM	> 100 µM	> 100 µM	> 100 µM	> 100 µM	> 100 µM	> 100 µM		> 100 µM
Clc1c2ccccc2nc2c1[nH]c1ccccc12	> 100 µM	22.2 µM		11.8 µM	> 100 µM	> 100 µM	> 100 µM	> 100 µM	> 100 µM		41.4 µM	> 100 µM	> 100 µM
O=C(N/N=C/C=C/c1ccc([N+](=O)[O-])o1)c1ccc(C(=O)N/N=C/C=C/c2ccc([N+](=O)[O-])o2)cc1	27.7 µM	> 100 µM	> 93.5 µM	> 100 µM	> 100 µM	> 28.5 µM	> 100 µM	> 100 µM	> 100 µM	> 100 µM	> 65.2 µM	> 30 µM	35.2 µM
COc1cc(C2c3c(ccc4ccccc34)C(=O)C3CCC(=O)N32)cc(OC)c1O (configuration not stated)	> 25 µM	> 25 µM	> 25 µM	> 25 µM	> 25 µM		> 25 µM	> 25 µM	> 25 µM	> 25 µM	> 25 µM	> 25 µM	
O=C1CC2SC(COCc3ccccc3)(CCN2Cc2ccccc2)C1 (configuration not stated)	> 100 µM	> 100 µM	> 100 µM	> 100 µM	> 100 µM	> 100 µM	81.9 µM	> 100 µM	> 100 µM	> 100 µM	43 µM	> 100 µM	> 100 µM
COC(=O)C1=NN2c3ccccc3CN([C@@H](C)c3ccccc3)C(=O)[C@@H]2[C@H]1c1ccccc1	> 100 µM	> 100 µM	> 100 µM	> 100 µM	> 100 µM	> 100 µM	> 100 µM	> 100 µM	> 100 µM	> 100 µM	> 100 µM	> 100 µM	> 100 µM
COc1cc2ccc1OCc1cccc(n1)COc1ccc(cc1OC)C=NCCNCCN=C2	> 100 µM		> 100 µM	> 100 µM	> 100 µM	> 100 µM	> 100 µM	> 100 µM	> 100 µM	> 100 µM	> 100 µM	> 100 µM	> 100 µM
Cc1cc2nc(N3C(=O)/C(=C/c4ccc(N(C)C)cc4)N=C3c3ccccc3)sc2cc1C	> 100 µM	> 100 µM	> 100 µM	40.7 µM	56.8 µM	37.6 µM	21.3 µM	> 100 µM	87.4 µM	> 100 µM	46.2 µM	> 100 µM	
CSc1c(C#N)c(S)[nH]c(=O)c1C#N	> 100 µM	> 100 µM	> 100 µM	> 100 µM	> 100 µM	> 100 µM	> 100 µM	> 100 µM	87.5 µM	> 100 µM	> 100 µM	> 100 µM	51.5 µM
CC1C(c2ccccc2O)c2cc3c(cc2OC1N1CCOCC1)OCO3 (configuration not stated)	> 100 µM	91.6 µM	90.6 µM	46.6 µM	91.3 µM	64.3 µM	> 100 µM	> 100 µM	> 100 µM	> 100 µM	40 µM	47 µM	35.1 µM
CCOC(=O)C(CCc1ncnc2c1ncn2Cc1ccccc1)(CCc1ncnc2c1ncn2Cc1ccccc1)C(=O)OCC	> 100 µM	> 100 µM	> 100 µM	> 100 µM		54.8 µM	> 100 µM	> 100 µM	10.9 µM		> 100 µM	> 100 µM	> 100 µM
O=C1C(S(=O)(=O)c2ccccc2)=C(CS(=O)(=O)c2ccccc2)[C@@H](OCc2ccccc2)[C@@H]1OCc1ccccc1	39.8 µM	27.4 µM	35.8 µM	61.3 µM	> 100 µM	36.3 µM	> 100 µM	27 µM	37.1 µM	> 100 µM	43.9 µM	66.3 µM	36.1 µM

SMILES	TGI [1]	TGI [2]	TGI [3]	TGI [4]	TGI [5]	TGI [6]	TGI [7]	TGI [8]	TGI [9]	TGI [10]	TGI [11]	TGI [12]	TGI [13]
Cc1ccc(N=C2C(c3ccccc3)=C(SC3=C(c4ccccc4)C(=Nc4ccc(C)cc4)c4ccccc43)c3ccccc32)cc1	24.7 µM	> 100 µM	> 100 µM	> 100 µM	22.2 µM	> 54.1 µM	> 100 µM	> 62.8 µM	33.3 µM	35.4 µM	17.8 µM	> 100 µM	
COC1=CC(=O)C2=C(C[C@@]3(C)C(=C2)C(CO)=CC[C@H]3O)C1=O	32.9 µM	> 100 µM	24 µM	65.9 µM		83.1 µM	32.3 µM	34 µM	39.5 µM	> 100 µM	14.1 µM	36.9 µM	> 100 µM
CC1=NN(c2nc(N)nc(/C(C#N)=C\c3cccc([N+](=O)[O-])c3)n2)C(C)(C)C1	54 µM	> 48.1 µM	> 35.4 µM	> 48 µM	30.9 µM	22.2 µM	> 23 µM	> 89.8 µM	15.7 µM	57.4 µM	4.61 µM	49.3 µM	> 54.9 µM
O=c1c2ccccc2[nH]c2c(Cl)cc(Cl)c(N3CCCCC3)c12	> 100 µM	54.9 µM	> 10 µM	> 100 µM	> 100 µM	> 100 µM	> 100 µM	> 100 µM	55.5 µM	> 100 µM	74.7 µM	> 100 µM	
Cc1ccc(N2C(N)=C(C#N)C(C#N)(C#N)C2c2ccccc2)cc1 (configuration not stated)	40.2 µM	33.6 µM		24 µM	28 µM	25.8 µM	18.8 µM	23.5 µM	32 µM	47.6 µM	6.15 µM	30.4 µM	27.8 µM
S=C=NC1CCC(c2cc3ccccc3s2)(N2CCCCC2)CC1 (configuration not stated)		3.95 µM	1.98 µM	3.93 µM	4.2 µM	3.22 µM	5.72 µM	6.55 µM	3.66 µM	4.59 µM	3.09 µM	3.54 µM	3.04 µM
CC1(C)C2CCC(O)(C2)C1N (configuration not stated)	> 100 µM	> 100 µM	> 100 µM	> 100 µM	> 100 µM	> 100 µM	> 100 µM	> 100 µM	> 100 µM	> 100 µM	> 31.6 µM	> 100 µM	> 100 µM
CCOC(=O)C(Cc1ccc(N(CCCl)CCCl)cc1)NC(=O)CCCN1C(=O)CN=C(c2ccccc2)c2cc(Cl)ccc21 (configuration not stated)	> 100 µM	> 100 µM	> 100 µM	37.8 µM	51.3 µM	> 49.7 µM	> 100 µM	> 100 µM	30.8 µM	> 100 µM	7.51 µM	8.31 µM	7.71 µM
C1CN2CCNCCN(CCN1)CC2	> 100 µM	> 100 µM	> 100 µM	> 100 µM	> 100 µM		> 100 µM	> 100 µM	> 100 µM	> 100 µM	> 100 µM	> 100 µM	> 100 µM
COc1cc2c[n+](C)c3c(c2cc1OC)Cc1cc2c(cc1-3)OCO2	> 100 µM	> 100 µM	> 100 µM	> 100 µM	> 100 µM		> 100 µM	> 100 µM	> 100 µM	> 100 µM	> 100 µM	> 100 µM	> 100 µM
Cc1c(F)c(NC(=O)CN(C)C)c2c(=O)cc(-c3ccc(NC(=O)CN(C)C)c(F)c3)oc2c1F	37.5 µM	30.5 µM	37.5 µM	38 µM		19 µM	28.3 µM	35.3 µM	26.9 µM	30.5 µM	35.9 µM	48.1 µM	45.9 µM
CN(CCCn1ccnc1[N+](=O)[O-])CCCn1ccnc1[N+](=O)[O-]	> 100 µM	> 100 µM	> 100 µM	> 100 µM	> 100 µM		> 100 µM	> 100 µM	> 100 µM	> 100 µM	> 100 µM	> 100 µM	> 100 µM
[N-]=[N+]=CC(=O)CCC(=O)N(c1ccccc1)c1ccccc1	> 10 µM	> 10 µM	> 10 µM		> 10 µM		> 10 µM	> 10 µM	> 10 µM	> 10 µM	> 10 µM	> 10 µM	> 10 µM
COc1ccc(/C(=N\Nc2ccccn2)c2ccccn2)cc1	11.8 µM	> 32.3 µM	> 100 µM	12.1 µM	8.01 µM	35.9 µM	49.7 µM	> 100 µM	0.629 µM	10.1 µM	18.4 µM	17.4 µM	
CC[C@H](C)[C@H](NC(=O)[C@@]1(O)[C@H](O)[C@]2(CC)C=CCN3CC[C@@]4(c5cc(Br)c(OC)cc5N(C)[C@@H]14)[C@@H]32)C(=O)OC	> 100 µM	> 100 µM	> 100 µM	29.2 µM		87.7 µM	> 100 µM	> 100 µM	> 100 µM	> 100 µM	70.8 µM	62.1 µM	83.7 µM
Cc1cccc2c1c(=O)c1c(O)cc(O)cc1n2C	> 100 µM	> 100 µM	> 100 µM	> 100 µM	> 100 µM	> 100 µM	> 100 µM	> 100 µM		> 100 µM	> 100 µM	> 100 µM	> 100 µM
CNC(=O)NS(=O)(=O)c1ccc(C)cc1	> 100 µM	> 100 µM	> 100 µM	> 100 µM	> 100 µM		> 100 µM	> 100 µM	> 100 µM	> 100 µM	> 100 µM	> 100 µM	> 100 µM
CC(=O)/C(C=Nc1c(C)n(C)n(C)c1=O)=C(/O)c1ccccc1			> 50 µM	> 50 µM		> 50 µM	> 50 µM	> 50 µM	> 50 µM	> 50 µM	> 50 µM	> 50 µM	> 50 µM
